This note sets out measurements from patent US12479845B2, “Imidazopyridine derivative compounds and use of same” (HANMI PHARM. CO., LTD., priority 2019, dated 2025).

The subject of the experiment is NCI-H1417 cells. The experiment is described as follows: Cell growth suppression test (CellTiter-Glo Luminescent Cell Viability Assay, 10 days treatment). The experiment is classed as cell-based. Particulars: Homo sapiens, 240 h, treated for 10 days. How it is done:
Cell growth suppression effects of the synthesized compounds on NCI-H1417 cells were identified. The cells were treated with the synthesized compounds for 10 days. Then, in order to test the cell growth suppression, CellTiter-Glo Luminescent Cell Viability Assay (available from Promega, USA) was used. This test is to measure emission signals proportional to the number of ATPs based on a fixed amount of ATPs, which represents the presence of metabolically active cells, thereby determining the number of viable cells. The results are expressed as a Gl50 value. As for a control, GSK2879552 (available from GlaxoSmithKline USA) was used.
(Cellular ATP, detected with luciferase, serves as a proxy for viable cell number.)
The term GI50 denotes the concentration that inhibits growth by half. Lower therefore signals more potent growth inhibition. Turning to `CN1CCN(c2ccc(-n3c(-c4ccc(C#N)c(F)c4)nc4c(N5CCC[C@@H](N)C5)ccnc43)c(F)c2)CC1` [Example 34], the GI50 worked out at 101 nM.
Compound `Cn1ccc2cc(-n3c(-c4ccc(C#N)c(F)c4)nc4c(N5CCC[C@@H](N)C5)ccnc43)ccc21` [Example 44, (R)-4-(7-(3-aminopiperidine-1-yl)-3-(1-methyl-1H-indole-5-yl)-3H-imidazo(4,5-b)pyridine-2-yl)-2fluorobenzonitrile] came in with a GI50 of 171 nM.
`Cc1ccc(-n2c(-c3ccc(C#N)c(F)c3)nc3c(N4CCC[C@@H](N)C4)ccnc32)nc1` [Example 45, (R)-4-(7-(3-aminopiperidine-1-yl)-3-(5-methylpyridine-2-yl)-3H-imidazo[4,5-b]pyridine-2-yl)-2-fluorobenzonitrile]: the GI50 was 171 nM.
Compound `CO[C@H]1CCN(c2ccc(-n3c(-c4ccc(C#N)c(F)c4)nc4c(N5CCC6(CCNCC6)CC5)ccnc43)c(F)c2)C1` [Example 70, (S)-2-fluoro-4-(3-(2-fluoro-4-(3-methoxypyrrolidine-1-yl)phenyl)-7-(3,9-diazaspiro[5.5]undecan-3-yl)-3H-imidazo[4,5-b]pyridine-2-yl) benzonitrile] returned a GI50 of 34 nM.
For `CN(C)C1CCN(c2ccc(-n3c(-c4ccc(C#N)c(F)c4)nc4c(N5CCC[C@@H](N)C5)ccnc43)c(F)c2)C1` (stereo partly drawn) [Example 57, 4-(7-((R)-3-aminopiperidine-1-yl)-3-(4-(3-(dimethylamino)pyrrolidine-1-yl)-2-fluorophenyl)-3H-imidazo[4,5-b]pyridine-2-yl)-2-fluorobenzonitrile], the GI50 worked out at 53 nM.
As for `CCCCCCc1ccc(-n2c(-c3ccc(C#N)c(F)c3)nc3c(N4CCC[C@@H](N)C4)ccnc32)cc1` [Example 51, (R)-4-(7-(3-aminopiperidine-1-yl)-3-(4-hexylphenyl)-3H-imidazo[4,5-b]pyridine-2-yl)-2-fluorobenzonitrile], it took 242 nM to inhibit growth by half (GI50).
`CO[C@H]1CCN(c2ccc(-n3c(-c4ccc(C#N)c(F)c4)nc4c(N5CC6CNCC(C6)C5)ccnc43)c(F)c2)C1` [Example 71, 4-(7-(3,7-diazabicyclo[3.3.1]nonane-3-yl)-3-(2-fluoro-4-((S)-3-methoxypyrrolidine-1-yl)phenyl)-3H-imidazo[4,5-b]pyridine-2-yl)-2-fluorobenzonitrile] showed a GI50 of 44 nM.
`O=C(O)c1ccc(CN2CCC(CN[C@@H]3C[C@H]3c3ccccc3)CC2)cc1` [Control, GSK2879552, reference compound] came in with a GI50 of 311 nM.
To `COCCCN(C)c1ccc(-n2c(-c3ccc(C#N)c(F)c3)nc3c(N4CCC[C@@H](N)C4)ccnc32)cc1` [Example 48, (R)-4-(7-(3-aminopiperidine-1-yl)-3-(4-((3-methoxypropyl)(methyl)amino)phenyl)-3H-imidazo[4,5-b]pyridine-2-yl)-2-fluorobenzonitrile] belongs 23 nM; to `CO[C@H]1CCN(c2ccc(-n3c(-c4ccc(C#N)c(F)c4)nc4c(N5CCC6(CC5)CNC6)ccnc43)c(F)c2)C1` [Example 66, (S)-2-fluoro-4-(3-(2-fluoro-4-(3-methoxypyrrolidine-1-yl)phenyl)-7-(2,7-diazaspiro[3.5]nonane-7-yl)-3H-imidazo[4,5-b]pyridine-2-yl)benzonitrile], 23 nM; to `COc1cc(C#N)ccc1-c1nc2c(N3CCC[C@@H](N)C3)ccnc2n1-c1ccc(N2CC[C@H](OC)C2)cc1F` [Example 53, 4-(7-((R)-3-aminopiperidine-1-yl)-3-(2-fluoro-4-((S)-3-methoxypyrrolidine-1-yl)phenyl)-3H-imidazo[4,5-b]pyridine-2-yl)-3-methoxybenzonitrile], > 1000 nM.
As to `N#Cc1ccc(-c2nc3c(N4CCC[C@@H](N)C4)ccnc3n2-c2ccc(N3CCOCC3)cc2F)cc1F` [Example 33, (R)-4-(7-(3-aminopiperidine-1-yl)-3-(2-fluoro-4-morpholinophenyl)-3H-imidazo[4,5-b]pyridine-2-yl)-2-fluorobenzonitrile], the GI50 came to 44 nM.
In turn, `Cn1ncc2cc(-n3c(-c4ccc(C#N)c(F)c4)nc4c(N5CCC[C@@H](N)C5)ccnc43)ccc21` [Example 55, (R)-4-(7-(3-aminopiperidine-1-yl)-3-(1-methyl-1H-indazole-5-yl)-3H-imidazo[4,5-b]pyridine-2-yl)-2-fluorobenzonitrile] showed a GI50 of 7.9 nM.
To `N#Cc1ccc(-c2nc3c(N4CCC[C@@H](N)C4)ccnc3n2-c2ccc(C(=O)N3CCOCC3)cc2)cc1F` [Example 38, (R)-4-(7-(3-aminopiperidine-1-yl)-3-(4-(morpholino-4-carbonyl)phenyl)-3H-imidazo[4,5-b]pyridine-2-yl)-2-fluorobenzonitrile] belongs 612 nM; to `CO[C@H]1CCN(c2ccc(-n3c(-c4ccc(C#N)c(F)c4)nc4c(N5C6CCC5CC(N)C6)ccnc43)c(F)c2)C1` (stereo partly drawn) [Example 63, 4-(7-(3-amino-8-azabicyclo[3.2.1]octane-8-yl)-3-(2-fluoro-4-((S)-3-methoxypyrrolidine-1-yl)phenyl)-3H-imidazo[4,5-b]pyridine-2-yl)-2-fluorobenzonitrile], 290 nM.
To `CO[C@H]1CCCN(c2ccc(-n3c(-c4ccc(C#N)c(F)c4)nc4c(N5CCC[C@@H](N)C5)ccnc43)c(F)c2)C1` [Example 56] belongs 14 nM; to `N#Cc1ccc(-c2nc3c(N4CCC[C@@H](N)C4)ccnc3n2-c2cccc(OCCN3CCOCC3)c2)cc1F` [Example 37, (R)-4-(7-(3-aminopiperidine-1-yl)-3-(3-(2-morpholinoethoxy)phenyl)-3H-imidazo[4,5-b]pyridine-2-yl)-2-fluorobenzonitrile], 148 nM.
With `N#Cc1ccc(-c2nc3c(N4CCC[C@@H](N)C4)ccnc3n2-c2ccc(O)cc2)cc1F` [Example 40, (R)-4-(7-(3-aminopiperidine-1-yl)-3-(4-hydroxyphenyl)-3H-imidazo[4,5-b]pyridine-2-yl)-2-fluorobenzonitrile] the figure was 42 nM; with `N#Cc1ccc(-c2nc3c(N4CCC[C@@H](N)C4)ccnc3n2-c2ccc(C3CCCCC3)cc2)cc1F` [Example 46, (R)-4-(7-(3-aminopiperidine-1-yl)-3-(4-cyclohexylphenyl)-3H-imidazo[4,5-b]pyridine-2-yl)-2-fluorobenzonitrile], 303 nM; with `N#Cc1ccc(-c2nc3c(N4CCC[C@@H](N)C4)ccnc3n2-c2ccc3c(c2)CCC3)cc1F` [Example 42, (R)-4-(7-(3-aminopiperidine-1-yl)-3-(2,3-dihydro-1H-indene-5-yl)-3H-imidazo[4,5-b]pyridine-2-yl)-2-fluorobenzonitrile], 26 nM.
The compound `CO[C@H]1CCN(c2ccc(-n3c(-c4ccc(C#N)c(F)c4)nc4c(N5CCC6(CCNC6)C5)ccnc43)c(F)c2)C1` (stereo partly drawn) [Example 65, 2-fluoro-4-(3-(2-fluoro-4-((S)-3-methoxypyrrolidine-1-yl)phenyl)-7-(2,7-diazaspiro[4.4]nonane-2-yl)-3H-imidazo[4,5-b]pyridine-2-yl)benzonitrile] gave a GI50 of 39 nM.
`C=Cc1cccc(-n2c(-c3ccc(C#N)c(F)c3)nc3c(N4CCC[C@@H](N)C4)ccnc32)c1` [Example 47, (R)-4-(7-(3-aminopiperidine-1-yl)-3-(3-vinylphenyl)-3H-imidazo[4,5-b]pyridine-2-yl)-2-fluorobenzonitrile] gave a GI50 of 360 nM.
With `Cn1ccc2cc(-n3c(-c4ccc(C#N)c(F)c4)nc4c(N5CCC[C@@H](N)C5)ccnc43)cnc21` [Example 54, (R)-4-(7-(3-aminopiperidine-1-yl)-3-(1-methyl-1H-pyrrolo[2,3-b]pyridine-5-yl)-3H-imidazo[4,5-b]pyridine-2-yl)-2-fluorobenzonitrile], the GI50 came to 21 nM.
`CCN(CC)c1ccc(-n2c(-c3ccc(C#N)c(F)c3)nc3c(N4CCC[C@@H](N)C4)ccnc32)cc1` [Example 21, (R)-4-(7-(3-aminopiperidine-1-yl)-3-(4-(diethylamino)phenyl)-3H-imidazo[4,5-b]pyridine-2-yl)-2-fluorobenzonitrile] returned a GI50 of 27 nM.
Turning to `CO[C@H]1CCN(c2ccc(-n3c(-c4ccc(C#N)c(F)c4)nc4c(N5CC6COCC6C5)ccnc43)c(F)c2)C1` (stereo partly drawn) [Example 68, 2-fluoro-4-(3-(2-fluoro-4-((S)-3-methoxypyrrolidine-1-yl)phenyl)-7-(tetrahydro-1H-furo[3,4-c]pyrrole-5(3H)-yl)-3H-imidazo[4,5-b]pyridine-2-yl)benzonitrile], the GI50 is > 1000 nM.
`CO[C@H]1CCN(c2ccc(-n3c(-c4ccc(C#N)cc4F)nc4c(N5CCC[C@@H](N)C5)ccnc43)c(F)c2)C1` [Example 52, 4-(7-((R)-3-aminopiperidine-1-yl)-3-(2-fluoro-4-((S)-3-methoxypyrrolidine-1-yl)phenyl)-3H-imidazo[4,5-b]pyridine-2-yl)-3-fluorobenzonitrile] showed a concentration for 50% growth inhibition (GI50) of 30 nM.
As for `CC(C)c1ccc(-n2c(-c3ccc(C#N)c(F)c3)nc3c(N4CCC[C@@H](N)C4)ccnc32)cc1` [Example 43, (R)-4-(7-(3-aminopiperidine-1-yl)-3-(4-isopropylphenyl)-3H-imidazo[4,5-b]pyridine-2-yl)-2-fluorobenzonitrile], it took 60 nM to inhibit growth by half (GI50).
As for `CO[C@H]1CCN(c2ccc(-n3c(-c4ccc(C#N)c(F)c4)nc4c(N5CC6(CNC6)C5)ccnc43)c(F)c2)C1` [Example 69, (S)-2-fluoro-4-(3-(2-fluoro-4-(3-methoxypyrrolidine-1-yl)phenyl)-7-(2,6-diazaspiro[3.3]heptane-2-yl)-3H-imidazo[4,5-b]pyridine-2-yl) benzonitrile], the GI50 is > 1000 nM.
Compound `N#Cc1ccc(-c2nc3c(N4CCC[C@@H](N)C4)ccnc3n2-c2ccc(OC3CCCC3)cc2F)cc1F` [Example 30] gave a GI50 of 62 nM.
